Holding throughout (type): in vivo
Assay [1] deals with Pseudoperonospora cubensis (PSPECU). Nature of the assay: Cucumber downy mildew foliar protectant test. The note with it: 200 ppm foliar, inoculated one day after treatment, read-out: Activity against fungal diseases PSPECU. The procedure:
The plants were inoculated with the fungus one day after treatment. ***=80-100% control; **=50-79% control; *=0-49% control. It will be understood by those in the art that the efficacy of the compounds against the foregoing fungi establishes the general utility of the compounds as fungicides. The activity of the compounds as effective fungicides was determined by applying the compounds to plants and observing control of fungal disease. […] All plants were inoculated with spores of the fungus the day after treatment, then incubated in an environment conducive to disease development. Disease severity was evaluated 4 to 25 days later, depending on the speed of disease development. The following experiments were performed in the laboratory to determine the fungicidal efficacy of the compounds of the invention. Cucumber Downy Mildew (Causal Agent Pseudoperonospora cubensis; Bayer Code […]): Cucumber plants (variety “Bush Champion' or 'Bush Pickle Hybrid') were grown from seed in a soil-less peat-based potting mixture (Metromix) until the first true leaf was 20-80% expanded. Each pot contained 1 seedling. These plants were sprayed until wet with the formulated test compound. On the following day, the leaves were inoculated with an aqueous suspension of downy mildew sporangia and the plants were kept in high humidity for one day to permit sporangia to germinate and infect the leaf. The plants were then incubated in a growth chamber until disease developed on untreated control plants. Table 1 presents the activity of typical compounds of the present invention when evaluated in these experiments. The effectiveness of the test compounds at controlling disease when sprayed on leaves was determined by assessing the severity of disease on treated plants, then converting the severity to percent control based on the level of disease on untreated, inoculated plants.

Assay [2] concerns Puccinia recondita tritici (PUCCRT). Nature of the assay: Leaf rust of wheat foliar protectant test. Particulars: 200 ppm foliar, inoculated one day after treatment, read-out: Activity against fungal diseases PUCCRT. As to the method: (§1) The plants were inoculated with the fungus one day after treatment. ***=80-100% control; **=50-79% control; *=0-49% control. It will be understood by those in the art that the efficacy of the compounds against the foregoing fungi establishes the general utility of the compounds as fungicides. The activity of the compounds as effective fungicides was determined by applying the compounds to plants and observing control of fungal disease. […] All plants were inoculated with spores of the fungus the day after treatment, then incubated in an environment conducive to disease development. Disease severity was evaluated 4 to 25 days later, depending on the speed of disease development. The following experiments were performed in the laboratory to determine the fungicidal efficacy of the compounds of the invention. […] Each pot contained 3-8 seedlings. These plants were sprayed until wet with the formulated test compounds. On the following day, the leaves were inoculated with an aqueous spore suspension of Puccinia recondita tritici and the plants were kept in high humidity overnight to permit spores to germinate and infect the leaf. The plants were then transferred to a greenhouse until disease developed on untreated control plants. Table 1 presents the activity of typical compounds of the present invention when evaluated in these experiments. The effectiveness of the test compounds at controlling disease when sprayed on leaves was determined by assessing the severity of disease on treated plants, then converting the severity to percent control based on the level of disease on untreated, inoculated plants.

In assay [3] the test system is Septoria tritici (SEPTTR). Kind of assay: Septoria blotch of wheat foliar protectant test. The note with it: Zymoseptoria tritici, read-out: Activity against fungal diseases SEPTTR; for pest or weed control at 25 ppm: foliar, Tested at 25 ppm (footnote b); for pest or weed control at 200 ppm: 200 ppm foliar, inoculated one day after treatment. The procedure:
as §1, with “3-10” for “3-8”, “compound.” for “compounds.”, “Septoria” for “Puccinia recondita”, “(one day in a dark dew chamber followed by three days in a lighted dew chamber)” for “overnight”

The test system of assay [4] is Magnaporthe grisea = Pyricularia oryzae (PYRIOR). Nature of the assay: whole plant or invertebrate. The note with it: foliar, read-out: Activity against fungal diseases PYRIOR.

23 molecules from patent US9000162B2, “5,8-difluoro-4-(2-(4-(heteroaryloxy)-phenyl)ethylamino)quinazolines and their use as agrochemicals” (Dow AgroSciences LLC, priority 2008, dated 2015) can be followed below.

Turning to `Fc1ccc(F)c2c(NCCc3ccc(Oc4cc(C(F)(F)F)ccn4)c(Br)c3)ncnc12` [Compound 39], the pest or weed control at 200 ppm in assay [1], in assay [2] and in assay [4] was 80 to 100% throughout. In addition, the pest or weed control at 25 ppm in assay [3] was in the range of 80 to 100%.
In the case of `Fc1ccc(F)c2c(NCCc3cccc(Oc4cc(C(F)(F)F)ccn4)c3)ncnc12` [Compound 40], the pest or weed control at 200 ppm in assay [1], in assay [2] and in assay [4] was 80 to 100% each time. In addition, the pest or weed control at 25 ppm in assay [3] fell in the range of 50 to 79%.
With `N#Cc1cc(CCNc2ncnc3c(F)ccc(F)c23)ccc1Oc1cc(C(F)(F)F)ccn1` [Compound 41], the pest or weed control at 200 ppm in assay [1], in assay [2] and in assay [4] was 80 to 100% each time. Further, the pest or weed control at 25 ppm in assay [3] is 50 to 79%.
For the molecule `Fc1ccc(F)c2c(NCCc3ccc(Oc4cnccc4C(F)(F)F)cc3)ncnc12` [Compound 43], the pest or weed control at 200 ppm in assay [1] is 80 to 100%; in assay [2], 80 to 100%; in assay [3], 80 to 100%; in assay [4], 50 to 79%.
Take `COc1cc(CCNc2ncnc3c(F)ccc(F)c23)ccc1Oc1cc(C(F)(F)F)cc(C)n1` [Compound 44]: the pest or weed control at 200 ppm was in the range of 80 to 100% in assay [1], 80 to 100% in assay [2], 80 to 100% in assay [3] and 0 to 49% in assay [4].
Regarding `COc1cc(CCNc2ncnc3c(F)ccc(F)c23)ccc1Oc1ncc(C(F)(F)F)cc1F` [Compound 45], the pest or weed control at 200 ppm in assay [1] fell in the range of 80 to 100%; in assay [2] it was 80 to 100%; in assay [3] it was 80 to 100%; in assay [4], 0 to 49%.
In the case of `COc1ccc(CCNc2ncnc3c(F)ccc(F)c23)cc1F` [Compound 46], the pest or weed control at 200 ppm fell in the range of 80 to 100% in assay [1], 80 to 100% in assay [2], 0 to 49% in assay [3] and 0 to 49% in assay [4].
As to `Oc1ccc(CCNc2ncnc3c(F)ccc(F)c23)cc1F` [Compound 47], the pest or weed control at 200 ppm lay within 0 to 49% in assay [1], 0 to 49% in assay [2], 0 to 49% in assay [3] and 50 to 79% in assay [4].
For `Fc1cnc(C(F)(F)F)c(F)c1Oc1ccc(CCNc2ncnc3c(F)ccc(F)c23)cc1` [Compound 48], the pest or weed control at 200 ppm in assay [1], in assay [2], in assay [3] and in assay [4] was 80 to 100% in each case.
In the case of `Fc1cc(CCNc2ncnc3c(F)ccc(F)c23)ccc1Oc1cc(C(F)(F)F)ccn1` [Compound 49], the pest or weed control at 200 ppm in assay [1], in assay [2], in assay [3] and in assay [4] was 80 to 100% throughout.
As for `COc1cc(CCNc2ncnc3c(F)ccc(F)c23)ccc1Oc1c(F)cnc(C(F)(F)F)c1F` [Compound 50], the pest or weed control at 200 ppm in assay [1], in assay [2], in assay [3] and in assay [4] was 80 to 100% each time.
As to `Cc1cc(O)ccc1CCNc1ncnc2c(F)ccc(F)c12` [Compound 51], the pest or weed control at 200 ppm in assay [1] fell in the range of 0 to 49%; in assay [2], 0 to 49%; in assay [3] it was 0 to 49%; in assay [4], 50 to 79%.
Turning to `COc1cc(CCNc2ncnc3c(F)ccc(F)c23)ccc1Oc1ccc(C(F)(F)F)cn1` [Compound 52], the pest or weed control at 200 ppm in assay [1], in assay [2], in assay [3] and in assay [4] was 80 to 100% in each case.
As for `COc1cc(CCNc2ncnc3c(F)ccc(F)c23)ccc1Oc1ncc(F)c(C(F)(F)F)c1F` [Compound 53], the pest or weed control at 200 ppm in assay [1], in assay [2], in assay [3] and in assay [4] was 80 to 100% in each case.
With `[O-][n+]1ccc(C(F)(F)F)cc1Oc1ccc(CCNc2ncnc3c(F)ccc(F)c23)cc1` [Compound 54], the pest or weed control at 200 ppm in assay [1], in assay [2], in assay [3] and in assay [4] was 80 to 100% throughout.
Consider `Cc1cc(Oc2cc(C(F)(F)F)ccn2)ccc1CCNc1ncnc2c(F)ccc(F)c12` [Compound 55], for which the pest or weed control at 200 ppm in assay [1], in assay [2], in assay [3] and in assay [4] was 80 to 100% throughout.
As to `Oc1cc(CCNc2ncnc3c(F)ccc(F)c23)ccc1Oc1cc(C(F)(F)F)ccn1` [Compound 56], the pest or weed control at 200 ppm is 80 to 100% in assay [1], 80 to 100% in assay [2], 50 to 79% in assay [3] and 80 to 100% in assay [4].
For the molecule `CCCOc1cc(CCNc2ncnc3c(F)ccc(F)c23)ccc1Oc1cc(C(F)(F)F)ccn1` [Compound 57], the pest or weed control at 200 ppm in assay [1], in assay [2], in assay [3] and in assay [4] was 80 to 100% in each case.
Regarding `CC(C)Oc1cc(CCNc2ncnc3c(F)ccc(F)c23)ccc1Oc1cc(C(F)(F)F)ccn1` [Compound 58], the pest or weed control at 200 ppm in assay [1], in assay [2], in assay [3] and in assay [4] was 80 to 100% in each case.
For the molecule `COc1cc(CCNc2ncnc3c(F)ccc(F)c23)ccc1Oc1cc(C(F)(F)F)cc[n+]1[O-]` [Compound 59], the pest or weed control at 200 ppm in assay [1], in assay [2], in assay [3] and in assay [4] was 80 to 100% each time.
In the case of `CCOc1cc(CCNc2ncnc3c(F)ccc(F)c23)ccc1Oc1cc(C(F)(F)F)ccn1` [Compound 60], the pest or weed control at 200 ppm in assay [1], in assay [2], in assay [3] and in assay [4] was 80 to 100% in each case.
Take `Cc1cc(CCNc2ncnc3c(F)ccc(F)c23)ccc1Oc1cc(C(F)(F)F)cc[n+]1[O-]` [Compound 61]: the pest or weed control at 200 ppm lay in the range of 80 to 100% in assay [1], 80 to 100% in assay [2], 80 to 100% in assay [3] and 50 to 79% in assay [4].
On to `Cc1cc(CCNc2ncnc3c(F)ccc(F)c23)ccc1Oc1cc(C(C)(F)F)ccn1` [Compound 64], for which the pest or weed control at 200 ppm in assay [1], in assay [2], in assay [3] and in assay [4] was 80 to 100% in each case.
